From article PMC5522996, “Big conductance calcium‐activated potassium channel openers control spasticity without sedation” (British Journal of Pharmacology, 2017)

What was measured:
[1] = tested on: GPR55‐deficient ABH mice; test: Spasticity in GPR55‐deficient mice; assay type: in vivo, mouse; conditions: 10 mg·kg^−1 i.v.
[2] = tested on: rabbits; test: Reproductive toxicology in rabbits; assay type: in vivo, rabbit
Procedure: Twenty‐eight day toxicology in rats and dogs for Investigational New Drug filing was performed by Charles Rivers (UK). Reproductive toxicology in rabbits was performed by Charles Rivers (Canada). Pharmacokinetic and/or toxicological doses ranged from 5 to 1000 mg·kg^−1 p.o. in Sprague Dawley male and female rats (n = 6‐26 per group), 50–200 mg·kg^−1 p.o. in male and female Beagle dogs (n = 6 per group) and 100–750 mg·kg^−1 p.o. in female New Zealand white rabbits (n = 9 per group). Results are expressed as mean ± SD.

[3] = tested on: spastic ABH mice with EAE; test: Hoffman (H) reflex electrophysiology in spastic animals; assay type: in vivo, mouse; conditions: 30mg/kg i.v.
[4] = tested on: healthy humans; test: Phase I single dose: haematology and serum chemistry; assay type: in vivo, human; conditions: Day 2
[5] = molecular target: T1, CYP450 2C8 (Homo sapiens, UniProt P10632); test: CYP450 inhibition of substrate binding; assay type: in vitro ADME; conditions: read-out: IC50 Inhibition of substrate binding, VSN16R
T1 construct: host or cells: BTI NN-5B1-4 or Sf9 insect cells
From the text: (§5) Inhibition of binding of either 3-cyano-7-ethoxycoumarin, dibenzylfluorescein or 7-benzyoxy-4-
(§6) (trifluoromethyl) coumarin in human enzyme transfected BTI NN-5B1-4 cells or Sf9 insect cells or
(§7) inhibition of dextromethorphan substrate to CYP450 2D6 in liver microsomes.

[6] = molecular target: T2, CYP450 2E1 (Homo sapiens, UniProt P05181); test: CYP450 inhibition of substrate binding; assay type: in vitro ADME; conditions: read-out: IC50 Inhibition of substrate binding, VSN16R
T2 construct: host or cells: BTI NN-5B1-4 or Sf9 insect cells
From the text: as §5, §6, §7

[7] = tested on: TA100; test: Bacterial reverse mutation, revertants per plate; assay type: cell-based, Salmonella typhimurium
Procedure: (§1) Strain of Organism Treatment Dose Revertants per plate
(§2) First Mutation without Metabolic Stimulation
(§3) Second Mutation without Metabolic Stimulation
(§4) VSN16R was incubated at various concentrations with either TA1535, TA1537, TA98 and TA100 strains of Salmonella typhimurium, which carry mutations in genes involved in histidine synthesis, and WP2uvvA Escherichia coli. The bacteria are spread on agar plates with limiting histidine content and incubated for 48 h. The number of histidine gene negative to positive revertants was assessed in two experiments. The results represent the mean ± SD. n=3/group. This was performed by Charles

[8] = tested on: TA1535; test: Bacterial reverse mutation, revertants per plate; assay type: cell-based, Salmonella typhimurium
Procedure: as §1, §2, §3, §4

[9] = tested on: TA1537; test: Bacterial reverse mutation, revertants per plate; assay type: cell-based, Salmonella typhimurium
Procedure: as §1, §2, §3, §4

[10] = tested on: TA98; test: Bacterial reverse mutation, revertants per plate; assay type: cell-based, Salmonella typhimurium
Procedure: as §1, §2, §3, §4

[11] = molecular target: T3, A2A (Homo sapiens, UniProt P29274); test: Receptor binding profile of VSN16R; conditions: 10µM VSN16R
T3 construct: purchased Cerep; Chantest; DiscoveRx; Multispan; MDS Pharma Services

[12] = molecular target: T4, A3 (Homo sapiens, UniProt P0DMS8); test: Receptor binding profile of VSN16R; conditions: 10µM VSN16R
T4 construct: purchased Cerep; Chantest; DiscoveRx; Multispan; MDS Pharma Services

[13] = tested on: α1(non-selective); test: Receptor binding profile of VSN16R; design: species or system human; conditions: 10µM VSN16R
[14] = molecular target: T5, CCKA (Homo sapiens, UniProt P32238); test: Receptor binding profile of VSN16R; conditions: 10µM VSN16R
T5 construct: purchased Cerep; Chantest; DiscoveRx; Multispan; MDS Pharma Services

[15] = tested on: GABA (non-selective); test: Receptor binding profile of VSN16R; design: species or system human; conditions: 10µM VSN16R
[16] = molecular target: T6, H2 (Homo sapiens, UniProt P25021); test: Receptor binding profile of VSN16R; conditions: 10µM VSN16R
T6 construct: purchased Cerep; Chantest; DiscoveRx; Multispan; MDS Pharma Services

[17] = molecular target: T7, δ2 (Homo sapiens, UniProt P41143); test: Receptor binding profile of VSN16R; conditions: 10µM VSN16R
T7 construct: purchased Cerep; Chantest; DiscoveRx; Multispan; MDS Pharma Services

[18] = molecular target: T8, 5-HT2A (Homo sapiens, UniProt P28223); test: Receptor binding profile of VSN16R; conditions: 10µM VSN16R
T8 construct: purchased Cerep; Chantest; DiscoveRx; Multispan; MDS Pharma Services

[19] = molecular target: T9, 5-HT7 (Homo sapiens, UniProt P34969); test: Receptor binding profile of VSN16R; conditions: 10µM VSN16R
T9 construct: purchased Cerep; Chantest; DiscoveRx; Multispan; MDS Pharma Services

[20] = molecular target: T10, SK+Ca channel (KCNN2) (Homo sapiens, UniProt Q9H2S1); test: Receptor binding profile of VSN16R
T10 construct: purchased Cerep; Chantest; DiscoveRx; Multispan; MDS Pharma Services

[21] = molecular target: T11, GPR6 (Homo sapiens, UniProt P46095); test: Receptor binding profile of VSN16R; conditions: 10µM VSN16R
T11 construct: purchased Cerep; Chantest; DiscoveRx; Multispan; MDS Pharma Services

[22] = molecular target: T12, EDG4 (Homo sapiens, UniProt Q9HBW0); test: Receptor binding profile of VSN16R; conditions: 10µM VSN16R
T12 construct: purchased Cerep; Chantest; DiscoveRx; Multispan; MDS Pharma Services

[23] = molecular target: T13, EDG5 (Homo sapiens, UniProt O95136); test: Receptor binding profile of VSN16R; conditions: 10µM VSN16R
T13 construct: purchased Cerep; Chantest; DiscoveRx; Multispan; MDS Pharma Services

[24] = First Mutation without Metabolic Stimulation, 17µg
[25] = First Mutation without Metabolic Stimulation, 5000µg
[26] = Second Mutation without Metabolic Stimulation, 17µg
[27] = Second Mutation without Metabolic Stimulation, 5000µg

T6 sequence (P25021 whole entry): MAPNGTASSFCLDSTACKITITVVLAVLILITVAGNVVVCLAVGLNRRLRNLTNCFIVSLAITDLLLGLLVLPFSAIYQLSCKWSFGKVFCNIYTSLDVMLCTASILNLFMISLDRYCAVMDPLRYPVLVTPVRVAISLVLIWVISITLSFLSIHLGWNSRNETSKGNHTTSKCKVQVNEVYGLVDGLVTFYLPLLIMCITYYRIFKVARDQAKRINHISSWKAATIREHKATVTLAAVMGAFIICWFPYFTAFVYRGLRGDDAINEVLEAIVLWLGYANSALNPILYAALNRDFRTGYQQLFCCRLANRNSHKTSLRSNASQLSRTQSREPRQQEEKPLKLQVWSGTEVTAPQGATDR
T9 sequence (P34969 whole entry): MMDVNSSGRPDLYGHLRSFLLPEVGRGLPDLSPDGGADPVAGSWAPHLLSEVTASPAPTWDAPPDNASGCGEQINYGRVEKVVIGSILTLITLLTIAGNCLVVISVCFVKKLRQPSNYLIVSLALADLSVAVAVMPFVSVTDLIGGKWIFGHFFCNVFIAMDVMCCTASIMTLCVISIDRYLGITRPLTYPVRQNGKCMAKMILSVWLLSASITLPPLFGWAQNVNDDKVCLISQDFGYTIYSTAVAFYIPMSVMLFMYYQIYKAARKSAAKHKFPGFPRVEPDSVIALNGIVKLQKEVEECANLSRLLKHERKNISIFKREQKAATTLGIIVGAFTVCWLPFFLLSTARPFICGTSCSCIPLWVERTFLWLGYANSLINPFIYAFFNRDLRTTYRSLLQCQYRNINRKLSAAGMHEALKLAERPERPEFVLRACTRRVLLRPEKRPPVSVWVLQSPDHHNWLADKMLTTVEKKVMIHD
T5 sequence (P32238 whole entry): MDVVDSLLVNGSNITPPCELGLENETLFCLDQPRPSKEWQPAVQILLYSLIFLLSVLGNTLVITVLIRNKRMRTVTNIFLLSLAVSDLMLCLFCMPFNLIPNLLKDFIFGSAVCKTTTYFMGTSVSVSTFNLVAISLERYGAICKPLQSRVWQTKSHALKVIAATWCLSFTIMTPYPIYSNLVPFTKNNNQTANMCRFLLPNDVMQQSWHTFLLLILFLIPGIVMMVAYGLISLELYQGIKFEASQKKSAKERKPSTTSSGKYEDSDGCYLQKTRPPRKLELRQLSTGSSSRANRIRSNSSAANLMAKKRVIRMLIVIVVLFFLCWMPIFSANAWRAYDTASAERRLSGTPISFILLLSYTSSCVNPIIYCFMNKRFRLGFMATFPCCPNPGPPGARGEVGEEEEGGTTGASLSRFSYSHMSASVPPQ
T12 sequence (Q9HBW0 whole entry): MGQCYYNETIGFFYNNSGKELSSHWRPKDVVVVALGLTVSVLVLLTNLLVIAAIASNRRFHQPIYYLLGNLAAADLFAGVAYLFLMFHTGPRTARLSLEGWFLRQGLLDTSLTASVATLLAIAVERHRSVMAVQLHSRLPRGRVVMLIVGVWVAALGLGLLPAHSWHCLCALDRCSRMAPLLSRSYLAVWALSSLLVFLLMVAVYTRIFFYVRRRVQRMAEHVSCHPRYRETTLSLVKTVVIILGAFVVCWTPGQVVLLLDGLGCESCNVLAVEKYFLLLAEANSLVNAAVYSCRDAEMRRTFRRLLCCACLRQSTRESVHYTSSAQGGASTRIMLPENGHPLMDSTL
T13 sequence (O95136 whole entry): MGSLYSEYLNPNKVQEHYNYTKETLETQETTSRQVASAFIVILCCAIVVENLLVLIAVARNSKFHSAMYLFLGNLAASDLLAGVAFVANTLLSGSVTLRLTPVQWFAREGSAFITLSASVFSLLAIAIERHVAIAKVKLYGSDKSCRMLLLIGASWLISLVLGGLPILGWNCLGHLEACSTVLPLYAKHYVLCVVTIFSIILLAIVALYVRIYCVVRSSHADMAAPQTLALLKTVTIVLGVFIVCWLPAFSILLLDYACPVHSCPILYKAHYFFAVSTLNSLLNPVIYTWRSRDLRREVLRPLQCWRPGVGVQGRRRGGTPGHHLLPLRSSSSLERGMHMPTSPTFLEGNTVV
T8 sequence (P28223 whole entry): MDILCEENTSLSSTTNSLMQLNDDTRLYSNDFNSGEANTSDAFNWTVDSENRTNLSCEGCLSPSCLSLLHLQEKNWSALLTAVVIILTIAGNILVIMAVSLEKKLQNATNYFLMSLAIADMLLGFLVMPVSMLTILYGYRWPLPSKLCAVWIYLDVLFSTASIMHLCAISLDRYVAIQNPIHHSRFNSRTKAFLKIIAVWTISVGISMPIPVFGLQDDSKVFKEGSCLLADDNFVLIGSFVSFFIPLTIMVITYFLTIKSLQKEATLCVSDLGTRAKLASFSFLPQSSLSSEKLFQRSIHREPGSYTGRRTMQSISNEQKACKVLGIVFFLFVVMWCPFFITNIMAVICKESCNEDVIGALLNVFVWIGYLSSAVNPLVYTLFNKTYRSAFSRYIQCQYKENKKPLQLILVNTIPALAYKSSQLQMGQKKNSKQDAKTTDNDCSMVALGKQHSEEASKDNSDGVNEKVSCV
T2 sequence (P05181 whole entry): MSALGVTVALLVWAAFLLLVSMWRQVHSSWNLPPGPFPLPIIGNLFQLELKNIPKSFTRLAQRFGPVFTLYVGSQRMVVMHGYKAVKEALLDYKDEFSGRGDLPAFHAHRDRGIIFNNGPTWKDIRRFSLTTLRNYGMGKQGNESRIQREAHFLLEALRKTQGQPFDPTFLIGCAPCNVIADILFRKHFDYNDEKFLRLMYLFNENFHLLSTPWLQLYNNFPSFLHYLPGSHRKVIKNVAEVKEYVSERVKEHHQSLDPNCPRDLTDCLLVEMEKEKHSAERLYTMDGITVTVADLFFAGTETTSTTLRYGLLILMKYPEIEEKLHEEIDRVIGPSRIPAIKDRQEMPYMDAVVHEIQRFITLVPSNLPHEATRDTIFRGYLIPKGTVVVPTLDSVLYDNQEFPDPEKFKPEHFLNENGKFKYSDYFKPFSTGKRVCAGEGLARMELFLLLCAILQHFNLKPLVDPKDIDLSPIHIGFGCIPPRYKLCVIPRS
T4 sequence (P0DMS8 whole entry): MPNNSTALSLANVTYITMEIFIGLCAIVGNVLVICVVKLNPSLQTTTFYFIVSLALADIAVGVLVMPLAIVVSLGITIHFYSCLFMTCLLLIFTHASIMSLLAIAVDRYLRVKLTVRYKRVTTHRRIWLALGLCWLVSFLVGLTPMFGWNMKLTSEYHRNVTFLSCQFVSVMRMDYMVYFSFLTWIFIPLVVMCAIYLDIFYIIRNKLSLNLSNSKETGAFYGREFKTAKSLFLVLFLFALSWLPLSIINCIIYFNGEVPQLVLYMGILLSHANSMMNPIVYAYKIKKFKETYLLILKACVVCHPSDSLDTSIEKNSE
T3 sequence (P29274 whole entry): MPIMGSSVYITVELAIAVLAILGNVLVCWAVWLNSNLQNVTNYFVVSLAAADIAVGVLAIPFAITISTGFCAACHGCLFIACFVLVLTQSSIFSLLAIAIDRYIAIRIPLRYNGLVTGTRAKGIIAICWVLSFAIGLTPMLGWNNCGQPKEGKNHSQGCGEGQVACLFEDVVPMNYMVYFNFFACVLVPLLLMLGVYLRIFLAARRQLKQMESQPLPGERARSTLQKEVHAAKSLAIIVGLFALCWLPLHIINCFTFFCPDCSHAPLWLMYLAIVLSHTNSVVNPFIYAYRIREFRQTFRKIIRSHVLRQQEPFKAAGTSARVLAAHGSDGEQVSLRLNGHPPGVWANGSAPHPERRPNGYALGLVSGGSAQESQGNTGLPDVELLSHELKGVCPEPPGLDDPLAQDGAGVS
T11 sequence (P46095 whole entry): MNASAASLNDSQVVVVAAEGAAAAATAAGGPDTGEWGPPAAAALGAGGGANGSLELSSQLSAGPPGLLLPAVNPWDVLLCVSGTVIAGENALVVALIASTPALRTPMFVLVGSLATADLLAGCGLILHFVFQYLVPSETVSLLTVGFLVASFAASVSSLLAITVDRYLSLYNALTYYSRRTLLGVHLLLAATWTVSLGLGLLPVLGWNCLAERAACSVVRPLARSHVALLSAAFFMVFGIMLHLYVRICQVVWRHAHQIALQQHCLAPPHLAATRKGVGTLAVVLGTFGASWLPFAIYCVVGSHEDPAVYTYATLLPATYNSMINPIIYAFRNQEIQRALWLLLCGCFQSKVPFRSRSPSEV
T1 sequence (P10632 whole entry): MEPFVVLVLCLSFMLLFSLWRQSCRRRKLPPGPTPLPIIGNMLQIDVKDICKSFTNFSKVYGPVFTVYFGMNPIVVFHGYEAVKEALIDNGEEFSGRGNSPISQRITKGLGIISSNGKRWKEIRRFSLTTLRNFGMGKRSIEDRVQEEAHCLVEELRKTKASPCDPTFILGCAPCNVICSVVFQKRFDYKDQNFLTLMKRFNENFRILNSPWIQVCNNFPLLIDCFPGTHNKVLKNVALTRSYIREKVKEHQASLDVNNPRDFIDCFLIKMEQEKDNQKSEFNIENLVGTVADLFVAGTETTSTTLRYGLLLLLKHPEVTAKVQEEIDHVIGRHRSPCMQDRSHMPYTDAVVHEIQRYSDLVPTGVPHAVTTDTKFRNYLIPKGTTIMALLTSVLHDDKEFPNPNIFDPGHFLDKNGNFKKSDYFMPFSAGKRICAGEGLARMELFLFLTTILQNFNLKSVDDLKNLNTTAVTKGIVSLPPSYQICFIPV
T7 sequence (P41143 whole entry): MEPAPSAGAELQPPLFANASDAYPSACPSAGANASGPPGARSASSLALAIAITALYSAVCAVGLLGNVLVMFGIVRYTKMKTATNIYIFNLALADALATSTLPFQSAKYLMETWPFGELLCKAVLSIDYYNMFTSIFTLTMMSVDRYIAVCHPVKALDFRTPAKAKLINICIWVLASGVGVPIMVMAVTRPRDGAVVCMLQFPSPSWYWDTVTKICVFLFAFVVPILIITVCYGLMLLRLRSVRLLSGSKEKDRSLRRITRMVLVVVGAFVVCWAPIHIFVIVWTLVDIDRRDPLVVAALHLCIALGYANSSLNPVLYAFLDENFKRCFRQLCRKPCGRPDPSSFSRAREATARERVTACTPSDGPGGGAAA

## C[C@H](CO)NC(=O)c1cccc(/C=C\CCCC(=O)N(C)C)c1 [VSN16R]
[1]
  Inhibition of spasticity: continued to inhibit spasticity
[2]
  Reproductive toxicology safe level: > 500 mg·kg^−1
[3]
  Animals with H reflex inhibited: 3/5
[4]; 25mg
  Albumin: 42 ± 1 g/L
  Amylase: 65 ± 21 U/L
  Basophils: 0.0 ± 0.0 109 cells/L
  Bilirubin: 14.9 ± 6.1 µmol/L
  Calcium: 2.40 ± 0.08 mmol/L
  Chloride: 104 ± 2 mmol/L
  Cholesterol: 4.79 ± 0.77 mmol/L
  Creatinine: 84 ± 10 µmol/L
  Eosinophils: 0.2 ± 0.1 109 cells/L
  Globulin: 28.8 ± 5.6 g/L
  Glucose: 4.78 ± 0.58 mmol/L
  Haemoglobin: 9.4 ± 0.5 mmol/L
  Hematocrit: 0.425 ± 0.021
  Lymphocytes: 1.9 ± 0.6 109 cells/L
  Magnesium: 0.8 ± 0.0 mmol/L
  Monocytes: 0.5 ± 0.1 109 cells/L
  Neutrophils: 2.5 ± 0.6 109 cells/L
  Phosphate: 1.20 ± 0.10 mmol/L
  Potassium: 4.27 ± 0.18 mmol/L
  Red Blood Cells: 4.94 ± 0.30 1012 cells/L
  Sodium: 141 ± 2 mmol/L
  Triglycerides: 1.26 ± 0.25 mmol/L
  Urea: 4.4 ± 0.9 mmol/L
  White Blood Cells: 5.2 ± 1.2 109 cells/L
[4]; 800mg
  Albumin: 42 ± 1 g/L
  Amylase: 50 ± 12 U/L
  Basophils: 0.0 ± 0.0 109 cells/L
  Bilirubin: 11.4 ± 3.0 µmol/L
  Calcium: 2.35 ± 0.04 mmol/L
  Chloride: 104 ± 1 mmol/L
  Cholesterol: 4.68 ± 0.78 mmol/L
  Creatinine: 84 ± 10 µmol/L
  Eosinophils: 0.3 ± 0.1 109 cells/L
  Globulin: 28.9 ± 1.2 g/L
  Glucose: 5.51 ± 0.92 mmol/L
  Haemoglobin: 9.3 ± 0.5 mmol/L
  Hematocrit: 0.421 ± 0.016
  Lymphocytes: 1.8 ± 0.6 109 cells/L
  Magnesium: 0.8 ± 0.1 mmol/L
  Monocytes: 0.5 ± 0.1 109 cells/L
  Neutrophils: 2.7 ± 1.2 109 cells/L
  Phosphate: 1.02 ± 0.10 mmol/L
  Potassium: 4.19 ± 0.25 mmol/L
  Red Blood Cells: 4.87 ± 0.30 1012 cells/L
  Sodium: 142 ± 3 mmol/L
  Triglycerides: 1.55 ± 0.61 mmol/L
  Urea: 4.7 ± 0.4 mmol/L
  White Blood Cells: 5.0 ± 1.1 109 cells/L
[5]
  IC50: > 10 µM
[6]
  IC50: > 10 µM
[7]; [24]
  Revertants per plate: 79.3 ± 7.6
[7]; [25]
  Revertants per plate: 79.3 ± 5.5
[7]; [26]
  Revertants per plate: 85.7 ± 6.7
[7]; [27]
  Revertants per plate: 99.3 ± 5.5
[8]; [24]
  Revertants per plate: 9.0 ± 6.6
[8]; [25]
  Revertants per plate: 13.7 ± 2.1
[8]; [26]
  Revertants per plate: 14.0 ± 5.6
[8]; [27]
  Revertants per plate: 11.3 ± 3.5
[9]; [24]
  Revertants per plate: 13.3 ± 1.5
[9]; [25]
  Revertants per plate: 7.0 ± 1.7
[9]; [26]
  Revertants per plate: 12.3 ± 2.9
[9]; [27]
  Revertants per plate: 10.3 ± 2.9
[10]; [24]
  Revertants per plate: 15.3 ± 4.7
[10]; [25]
  Revertants per plate: 18.3 ± 7.1
[10]; [26]
  Revertants per plate: 23.3 ± 1.2
[10]; [27]
  Revertants per plate: 23.7 ± 1.2
[11]
  Activity: Negligible Activity
[12]
  Activity: Negligible Activity
[13]
  Activity: Negligible Activity
[14]
  Activity: Negligible Activity
[15]
  Activity: Negligible Activity
[16]
  Activity: Negligible Activity
[17]
  Activity: Negligible Activity
[18]
  Activity: Negligible Activity
[19]
  Activity: Negligible Activity
[20]; 10µM VSN16R
  Activity: Negligible Activity
[20]; transfected cells
  Block of apamin binding to KCa2.2 channels: failed to block the binding of apamin
[21]
  Activity: Negligible Activity
[22]
  Activity: Negligible Activity
[23]
  Activity: Negligible Activity
